Values quoted from earlier work, collected in patent US20150093449A1, “Method of Using Silicon Substituted Phosphates to Improve Healing of Bone and Soft Tissue” (priority 2009, published 2015).

Test system: staph epidermis

silicon
glycoprotein slime formation: inhibits
